Measurements from patent publication US20230084899A1, “COMBINATION OF AN AHR-INHIBITOR AND AN PD1-INHIBITOR ANTIBODY AND ITS USE IN THE TREATMENT OF CANCER” (Bayer Aktiengesellschaft, priority 2019, published 2023).
“Also recorded” adds a separate entry of the source.

Assays:
tumor cell proliferation = assay: Anti-proliferative effect of the combination (tumor cell proliferation); format: cell-based
[1] = test system: human T cell/DC co-cultures; assay: Mixed lymphocyte reaction: IL-2 in supernatants of matured DC / T cell co-culture; format: cell-based
Procedure: Whole blood samples from healthy donors were collected and PBMCs were isolated using density gradient centrifugation for 15 min at 800×g at room temperature with Biocoll separation solution (density […]; Biochrom, #L6115). The supernatants were discarded and the PBMCs were poured into 50 ml tubes, washed with PBS without Ca^+/Mg^+, counted and resuspended in MACS separation buffer (Miltenyi Biotec). The monocytes were isolated from PBMCs using the Monocyte Isolation Kit II (Miltenyi Biotec, Cat #130-091-153) according to manufacturer's instructions. On the day of co-culture, T cells were isolated from PBMC preparations obtained from whole blood of different donors using the Pan T Cell Isolation Kit (Auto MACS Pro, Cat #130-096-535).
Monocytes were differentiated into monocyte-derived dendritic cells (moDCs) using 100 ng/ml GM-CSF (R&D Systems, Cat #215-GM) and 100 ng/ml rhIL4 (R&D Systems, Cat #204-IL) for 6 days at 37° C., 5% CO2. To produce mature DCs, moDCs were further matured for 24 h with IFNγ (R&D Systems, Cat #285-IF) and lipopolysaccharide (LPS) from Escherichia coli O127: B8 (Sigma, Cat #L4516).
For the co-culture assay, matured DCs and T cells from different donors were used. The cells were seeded in 96-well plates (Costar, Cat #3585) at 1×10^4 cells/well for matured DCs and 5×10^4 cells/well for T cells. A serial dilution of component A (3× dilution steps) in combination with anti-programmed cell death 1 antibody (as component B: aPD-1; 1 μg/ml pembrolizumab or 3 μg/ml nivolumab) or respective concentrations of hIgG4 (isotype control TPP10747, PPB11084) was added and the cells were incubated for 3 days at 37° C., 5% CO2.
IL-2 cytokine levels were measured in aliquots of supernatants using the Human IL-2 Tissue Culture kit (Meso Scale Discovery, Cat #K151AHB-4).

Row | SMILES | inhibiting tumor cell proliferation (tumor cell proliferation; in combination with nivolumab) | anti-proliferative effect / inhibiting tumor cell proliferation (tumor cell proliferation; in combination with pembrolizumab) | T cell activity (observed by IL-2 production) ([1]; alone and in combination with PD1 antibodies) | IL-2 production from T cells ([1]; component A alone (component A+hIgG4 isotype control), serial dilution, 3 days co-culture) | IL-2 levels, combination compared to aPD-1 or component A alone ([1]; component A serial dilution + 1 μg/ml pembrolizumab, 3 days co-culture (FIG. 1)) | IL-2 levels, combination compared to aPD-1 or component A alone ([1]; component A serial dilution + 3 μg/ml nivolumab, 3 days co-culture (FIG. 2))
1 | C[C@@H](CO)NC(=O)c1cc(-c2ccc(Cl)cc2)nn(-c2cnn(C)c2)c1=O [6-(4-Chlorophenyl)-N-[(2S)-1-hydroxypropan-2-yl]-2-(1-methyl-1H-pyrazol-4-yl)-3-oxo-2,3-dihydropyridazine-4-carboxamide] | synergistic effects | very strong synergy; also recorded: synergistic effects | – | – | – | –
2 | C[C@@H](CO)NC(=O)c1cc(-c2ccc(Cl)cc2)nn(-c2cnn(C)c2)c1=O [component A, 6-(4-Chlorophenyl)-N-[(2S)-1-hydroxypropan-2-yl]-2-(1-methyl-1H-pyrazol-4-yl)-3-oxo-2,3-dihydropyridazine-4-carboxamide] | – | – | enhances T cell activity | dose-dependent response | higher IL-2 levels | higher IL-2 levels
